21 molecules from US7365083B2, “Amide derivatives as NMDA receptor antagonists” (Richter Gedeon Vegyeszeti Gyar Rt., priority 2000, dated 2008) can be followed below.

SMILES strings stand for the structures. Read-outs that look alike come from different tables or passages of the source.

Common to all, as to format: cell-based
One test has as its target T1, NR1a/NR2A receptors (Rattus norvegicus, UniProt Q00959).
T1 construct: expressed in transfected cells; host or cells: HEK293, transient expression
Description: NMDA antagonist potency on HEK cells transiently transfected with NR1a/NR2A subunits, patch clamp method. The settings on record: HEK293, 15 μM test concentration, 100 μM NMDA, -70 mV, read-out: NR1/NR2A % Inhibition of NMDA Ca2+-response 15 μM. The procedure:
(§1) Genes cloned according to published sequences [gi508809 (rat NR1a), gi205738 (rat NR2B), gi2905805 (rat NR2A)] were inserted into inducible mammalian expression vectors bearing different resistance genes (hygromycine in case of NR1a or neomycine in case of NR2 subunits). The vector constructs were introduced into HEK293 cells using a cationic lipid-mediated transfection method. Protein expression was induced by 3 μM MuristeronA. Cells were maintained in the presence of 365 μM ketamine for 48-72 hours under an atmosphere of 95% air-5% CO2 at 37° C. before the experiments.
Assessment of NMDA Antagonist Potency on Cells Transfected with NR1a/NR2A Subunits—Patch Clamp Method
Cells transiently expressing NR1a/NR2A receptors and grown onto coverslips were used in patch clamp experiments. Whole-cell patch clamp recording was done according to the standard technique. Cell cultures were constantly superfused with an extracellular solution (140 mM NaCl, 5 mM KCl, 5 mM Hepes, 5 mM Na-Hepes, 2 mM CaCl2, 20 mM glucose, 10 μM glycine, pH 7.35) at room temperature. Patch pipettes with resistance between 3 and 6 MΩ were filled with an intracellular solution (140 mM CsCl, 11 mM EGTA, and 10 mM Hepes, pH 7.3). The inward current elicited by 100 μM NMDA was recorded from cells voltage clamped at −70 mV. Compounds were applied via a multibarrel ejection device controlled by electromagnetic valves. First NMDA was repeatedly administered until stabilization of responses, then it was given in the presence of the test compound. The degree of inhibition—expressed as percentage—was calculated from the peak currents evoked by NMDA in the presence and absence of the test compound. Selectivity ratio (NR2B/NR2A), was calculated as the ratio of test dose on NR1/2A transfected cells and IC50 value of NMDA antagonism on NR1/NR2B expressing cells.

The next test has as its target T2, NMDA receptors (Rattus norvegicus, UniProt P35439+Q00960).
T2 construct: primary neocortical cell cultures derived from 17 day old Charles River rat embryos; endogenous in cells; host or cells: primary neocortical neurons from 17 day old rat embryos, 4-7 days in vitro
Description: NMDA antagonist potency in vitro by measurement of intracellular calcium concentration with a plate reader fluorimeter, primary neocortical cell cultures. The text has this:
It is known that during postnatal development the subunit composition of neuronal NMDA receptors is changing. […] Since NMDA receptors are known to be permeable to calcium ions upon excitation, we characterized the NMDA receptor activation by measurement of rise in intracellular calcium concentration following the agonist (NMDA) application to the cells.
Assessment of NMDA Antagonist Potency In Vitro by Measurement of Intracellular Calcium Concentration with a Plate Reader Fluorimeter
The cultures were used for the intracellular calcium measurements after 4-7 days in vitro. […] To stop the loading the cells were washed twice with the solution used for the measurement (140 mM NaCl, 5 mM KCl, 2 mM CaCl2, 5 mM HEPES, 5 mM HEPES-Na, 20 mM glucose, 10 μM glycine, pH=7.4). After washing the test compounds were added to the cells in the above solution (90 μl/well). Intracellular calcium measurements were carried out with a plate reader fluorimeter: elevation of Fluo-4-fluorescence and so, intracellular calcium was induced by application of 40 μM NMDA. Inhibitory potency of the test compounds was assessed by measuring the reduction in the calcium elevation in the presence of different concentrations of the compounds. After the measurement a standard calibration procedure with slight modifications was used to convert the fluorescent data to calcium concentration values [Meth. Cell.
Dose-response curves and IC50-values were calculated by using data derived from at least three independent experiments. Inhibitory potency of a compound at a single concentration point was expressed as percent inhibition of the NMDA response. Sigmoidal concentration-inhibition curves were fit to the data and IC50 values were determined as the concentration that produces half of the maximal inhibition caused by the compound.

The target of another test is T3, NR1a/NR2B receptors (Rattus norvegicus, UniProt P35439+Q00960).
T3 construct: expressed in transfected cells
Description: NMDA antagonist potency on HEK293 cells stably expressing NR1a/NR2B subunits, fluorimetric method. Conditions: for IC50: HEK293 cells stably expressing NR1a/NR2B, intracellular calcium, plate reader fluorimeter, means of 3 experiments, read-out: NR1/NR2B IC50. Here is the method: as §1
Assessment of NMDA Antagonist Potency on Cells Transfected with NR1a/NR2B Subunits—Fluorimetric Method
For establishment of cell clones stably expressing NR1a/NR2B receptors, transfected cells were exposed to the selecting antibiotics for 4 weeks then resistant clones were grown up. The expression of NR2B subunit protein was verified by a flow cytometry based immunocytochemical method. Positive clones were further tested for functional activity in patch clamp experiments. […] Induction of protein expression and maintenance of cells were the same as described above.
The cells were plated onto standard 96-well microplates. A plate reader-based fluorometric assay was used to measure NMDA antagonism. The method was essentially similar to that described above for testing primary cultures of rat cortical neurons.

[1] abbreviates: rat primary neocortical cultures, 4-7 days in vitro, calcium elevation induced by 40 μM NMDA, Fluo-4, read-out: NMDA IC50.

T2 sequence (Q00960 27-1482, other chains not shown): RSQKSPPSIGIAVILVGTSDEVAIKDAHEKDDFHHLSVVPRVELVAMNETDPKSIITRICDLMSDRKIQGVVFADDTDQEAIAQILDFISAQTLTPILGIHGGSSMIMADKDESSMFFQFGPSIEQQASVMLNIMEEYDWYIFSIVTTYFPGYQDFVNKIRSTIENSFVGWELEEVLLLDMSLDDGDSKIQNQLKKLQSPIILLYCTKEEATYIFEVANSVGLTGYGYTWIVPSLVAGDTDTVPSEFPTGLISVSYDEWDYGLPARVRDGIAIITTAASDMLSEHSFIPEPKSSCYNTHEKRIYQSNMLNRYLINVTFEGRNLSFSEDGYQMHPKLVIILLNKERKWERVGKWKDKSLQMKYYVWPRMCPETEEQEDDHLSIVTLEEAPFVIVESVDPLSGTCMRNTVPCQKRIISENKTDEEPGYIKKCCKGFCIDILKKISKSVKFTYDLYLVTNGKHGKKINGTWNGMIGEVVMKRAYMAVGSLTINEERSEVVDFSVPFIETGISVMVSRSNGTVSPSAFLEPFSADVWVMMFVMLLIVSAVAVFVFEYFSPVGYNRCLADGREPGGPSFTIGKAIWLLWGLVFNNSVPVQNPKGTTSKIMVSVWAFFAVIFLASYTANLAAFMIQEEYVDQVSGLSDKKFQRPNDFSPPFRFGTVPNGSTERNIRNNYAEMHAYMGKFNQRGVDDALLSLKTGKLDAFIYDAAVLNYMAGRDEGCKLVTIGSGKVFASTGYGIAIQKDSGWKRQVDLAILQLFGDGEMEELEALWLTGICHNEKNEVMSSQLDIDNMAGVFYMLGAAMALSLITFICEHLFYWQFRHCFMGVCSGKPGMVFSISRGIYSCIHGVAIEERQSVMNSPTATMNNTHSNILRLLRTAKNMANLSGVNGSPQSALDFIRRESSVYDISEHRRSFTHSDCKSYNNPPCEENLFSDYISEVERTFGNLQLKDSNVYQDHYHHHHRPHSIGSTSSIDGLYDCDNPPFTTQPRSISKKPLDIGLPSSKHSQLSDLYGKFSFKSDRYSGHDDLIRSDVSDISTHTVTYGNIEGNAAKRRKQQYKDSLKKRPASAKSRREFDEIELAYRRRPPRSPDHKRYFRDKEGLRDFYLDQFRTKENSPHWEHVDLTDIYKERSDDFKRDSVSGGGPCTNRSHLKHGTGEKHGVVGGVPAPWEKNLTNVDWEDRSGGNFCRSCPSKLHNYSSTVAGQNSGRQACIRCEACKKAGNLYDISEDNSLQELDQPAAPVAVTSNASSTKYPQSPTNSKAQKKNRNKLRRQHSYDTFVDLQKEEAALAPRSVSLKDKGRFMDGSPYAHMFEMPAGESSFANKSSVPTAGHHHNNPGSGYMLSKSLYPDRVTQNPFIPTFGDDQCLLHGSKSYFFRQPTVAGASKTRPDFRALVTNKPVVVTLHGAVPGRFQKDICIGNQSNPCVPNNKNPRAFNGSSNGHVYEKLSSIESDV
T3 sequence (Q00960 27-1482, other chains not shown): as above
T1 sequence (Q00959 20-1464 limits assumed): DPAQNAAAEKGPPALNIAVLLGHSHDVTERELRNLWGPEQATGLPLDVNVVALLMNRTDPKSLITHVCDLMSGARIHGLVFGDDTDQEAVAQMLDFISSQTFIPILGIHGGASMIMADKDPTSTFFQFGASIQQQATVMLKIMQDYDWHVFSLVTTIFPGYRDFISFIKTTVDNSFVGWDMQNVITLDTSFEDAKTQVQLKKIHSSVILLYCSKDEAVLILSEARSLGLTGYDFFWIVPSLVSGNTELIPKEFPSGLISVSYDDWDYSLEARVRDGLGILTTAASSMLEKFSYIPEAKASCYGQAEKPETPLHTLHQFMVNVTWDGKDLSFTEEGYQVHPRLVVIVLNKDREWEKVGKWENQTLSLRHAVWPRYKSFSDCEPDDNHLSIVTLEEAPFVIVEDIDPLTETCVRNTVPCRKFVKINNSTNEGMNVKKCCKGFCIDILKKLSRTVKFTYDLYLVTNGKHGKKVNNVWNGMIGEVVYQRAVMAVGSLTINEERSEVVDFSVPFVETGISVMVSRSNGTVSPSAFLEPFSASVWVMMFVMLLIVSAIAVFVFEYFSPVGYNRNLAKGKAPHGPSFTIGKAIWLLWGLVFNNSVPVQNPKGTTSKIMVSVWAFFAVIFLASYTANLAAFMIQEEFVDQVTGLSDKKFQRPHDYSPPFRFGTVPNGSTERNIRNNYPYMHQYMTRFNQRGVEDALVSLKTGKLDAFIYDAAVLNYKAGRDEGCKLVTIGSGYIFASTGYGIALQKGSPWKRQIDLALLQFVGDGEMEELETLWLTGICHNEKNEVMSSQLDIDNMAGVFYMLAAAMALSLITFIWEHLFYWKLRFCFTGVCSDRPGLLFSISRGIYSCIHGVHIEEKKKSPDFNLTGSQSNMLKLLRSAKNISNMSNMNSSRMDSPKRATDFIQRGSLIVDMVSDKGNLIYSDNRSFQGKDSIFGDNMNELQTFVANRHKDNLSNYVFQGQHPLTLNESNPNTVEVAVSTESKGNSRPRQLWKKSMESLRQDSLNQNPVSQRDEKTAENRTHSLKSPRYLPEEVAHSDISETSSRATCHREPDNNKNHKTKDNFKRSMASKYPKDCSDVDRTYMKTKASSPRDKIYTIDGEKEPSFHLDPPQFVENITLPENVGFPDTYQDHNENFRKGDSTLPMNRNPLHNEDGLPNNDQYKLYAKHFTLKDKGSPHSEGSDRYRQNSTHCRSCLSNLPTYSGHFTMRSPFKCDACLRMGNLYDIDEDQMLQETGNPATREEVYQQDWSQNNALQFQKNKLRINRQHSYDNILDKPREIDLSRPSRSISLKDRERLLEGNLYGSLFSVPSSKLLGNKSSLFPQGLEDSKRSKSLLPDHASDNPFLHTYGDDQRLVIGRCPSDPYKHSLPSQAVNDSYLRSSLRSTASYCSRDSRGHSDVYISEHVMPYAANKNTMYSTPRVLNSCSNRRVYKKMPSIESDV

Regarding `C[C@@H]([C@@H](O)c1ccc(O)cc1)N1CCC(O)(c2ccccc2)CC1` [CP 101,606, (1S,2S)-1-(4-hydroxyphenyl)-2-(4-hydroxy-4-phenylpiperidine-1-yl)-1-propanol, reference compound], the inhibition at 15 µM on NR1a/NR2A receptors was -8.8%.
For the molecule `Oc1ccc(OCCN2CCC(Cc3ccc(F)cc3)CC2)cc1` [Co-111103, 1-[2-(4-hydroxyphenoxy)ethyl]-4-(4-fluorobenzyl)piperidine, reference compound], on NMDA receptors (setting [1]), the IC50 was determined as 60 nM.
On the same count and under the same terms, then `O=C(c1cc2ccc(O)cc2[nH]1)N1CCC(Cc2ccc(F)cc2)CC1` [Compound 4513848, 1-[4-(4-Fluorobenzyl)piperidine-1-yl]-1-(6-hydroxy-1H-indole-2-yl)methanone], with 90 nM; and `O=C(c1cc2ccc3[nH]ccc3c2[nH]1)N1CCC(Cc2ccccc2)CC1` [Compound 4514305, 1-(4-Benzylpiperidin-1-yl)-1-(1,6-dihydro-1,6-diaza-as-indacene-2-yl)methanone], with 392 nM.
`Cc1ccc(CC2CCN(C(=O)c3nc4ccc(O)cc4[nH]3)CC2)cc1` [Compound 4570001378, (6-Hydroxy-1H-benzoimidazol-2-yl)-[4-(4-methyl-benzyl)-piperidine-1-yl]-methanone]: the IC50 on NMDA receptors (setting [1]) is 9 nM.
Take `O=C(c1cc2cc3[nH]c(=O)oc3cc2[nH]1)N1CCC(Cc2ccccc2)CC1` [Compound 4570001461, 6-(4-Benzylpiperidin-1-carbonyl)-1,5-dihydro-oxazolo[4,5-f]indole-2-one]: at NR1a/NR2B receptors, the IC50 came to 15 nM. Further, the inhibition at 15 µM at NR1a/NR2A receptors worked out at 14.9%.
As to `O=C(c1cc2cc3[nH]c(=O)oc3cc2[nH]1)N1CCC(OCc2ccccc2)CC1` [Compound 4570001462, 6-(4-Benzyloxypiperidin-1-carbonyl)-1,5-dihydro-oxazolo[4,5-f]indole-2-one], the IC50 on NMDA receptors (setting [1]) was 79 nM.
As for `O=C(c1cc2cc3[nH]c(=O)oc3cc2[nH]1)N1CCC(Cc2ccc(F)cc2)CC1` [Compound 4570001484, 6-[4-(4-Fluorobenzyl)piperidin-1-carbonyl]-1,5-dihydro-oxazolo[4,5-f]indole-2-one], the IC50 on NMDA receptors (setting [1]) was determined as 41 nM.
Turning to `O=C(c1cc2c(ccc3cn[nH]c32)[nH]1)N1CCC(Cc2ccc(F)cc2)CC1` [Compound 4570001661, [4-(4-Fluorobenzyl)piperidin-1-yl]-(1,6-dihydro-pirrolo[2,3-g]indazol-7-yl)-methanone], the IC50 on NMDA receptors (setting [1]) turned out to be 150 nM.
As for `O=C(c1cc2c(ccc3cn[nH]c32)[nH]1)N1CCC(Cc2ccccc2)CC1` [Compound 4570001662, (4-Benzylpiperidin-1-yl)-(1,6-dihydro-pirrolo[2,3-g]indazol-7-yl)-methanone], the IC50 on NMDA receptors (setting [1]) stood at 58 nM.
Consider `O=C(c1cc2c(ccc3[nH]cnc32)[nH]1)N1CCC(Cc2ccc(F)cc2)CC1` [Compound 4570001688, [4-(4-Fluorobenzyl)piperidin-1-yl]-(3,6-dihydro-imidazo[4,5-e]indol-7-yl)methanone], for which the IC50 at NMDA receptors (setting [1]) turned out to be 88 nM.
Consider `O=C(c1cc2c(ccc3[nH]ncc32)[nH]1)N1CCC(Cc2ccccc2)CC1` [Compound 4570001689, (4-Benzylpiperidin-1-yl)-(3,6-dihydro-pirrolo[3,2-e]indazol-7-yl)methanone], for which the IC50 on NMDA receptors (setting [1]) worked out at 20 nM.
Turning to `O=C(c1cc2c(ccc3[nH]ncc32)[nH]1)N1CCC(Cc2ccc(F)cc2)CC1` [Compound 4570001690, [4-(4-Fluorobenzyl)piperidin-1-yl]-(3,6-dihydro-pirrolo[3,2-e]indazol-7-yl)methanone], on NMDA receptors (setting [1]), the IC50 is 22 nM.
In the case of `O=C(c1cc2c(ccc3[nH]cnc32)[nH]1)N1CCC(Cc2ccccc2)CC1` [Compound 4570001779, (4-Benzylpiperidin-1-yl)-(3,6-dihydro-imidazo[4,5-e]indol-7-yl)methanone], the IC50 on NMDA receptors (setting [1]) was found to be 50 nM.
With `O=C(c1nc2c(ccc3oc(=O)[nH]c32)[nH]1)N1CCC(Cc2ccccc2)CC1` [Compound 4570001971, 7-(4-Benzylpiperidin-1-carbonyl)-1,6-dihydro-3-oxa-1,6,8-triaza-as-indacen-2-one], the IC50 on NMDA receptors (setting [1]) came out at 328 nM.
Consider `O=C(c1nc2cc3[nH]c(=O)oc3cc2[nH]1)N1CCC(Cc2ccccc2)CC1` [Compound 4570001972, 6-(4-Benzylpiperidin-1-carbonyl)-3,5-dihydro-imidazo[4′,5′;4,5]benzo[1,2-d]oxazole-2-one], for which, at NMDA receptors (setting [1]), the IC50 was 193 nM.
Turning to `O=C(c1cc2cc3[nH]c(=O)[nH]c3cc2[nH]1)N1CCC(Cc2ccccc2)CC1` [Compound 4570002045, 6-(4-Benzylpiperidin-1-carbonyl)-3,5-dihydro-1H-imidazo[4,5-f]indole-2-one], on NMDA receptors (setting [1]), the IC50 stood at 440 nM.
`Cc1ccc(OC2CCN(C(=O)c3cc4c(ccc5[nH]ncc54)[nH]3)CC2)cc1` [Compound 4570002260, (3,6-Dihydro-pirrolo[3,2-e]indazol-7-yl)-(4-p-tolyloxypiperidin-1-yl)methanone]: the IC50 at NR1a/NR2B receptors came to 30 nM; at NMDA receptors (setting [1]) it was 42 nM. Moreover, the “selectivity toward NR2B subunit containing NMDA receptors (in words)” value at NR1a/NR2B receptors (according to the results in Table 2) is on record as “highly selective”. Moreover, at NR1a/NR2B receptors (ratio of test concentration on NR1/NR2A transfected cells and IC50 value on NR1/NR2B expressing cells), the “Selectivity (selectivity ratio NR2B/NR2A)” value is reported as above 500. Also, the inhibition at 15 µM at NR1a/NR2A receptors is 3.3%.
Consider `Cc1ccc(CC2CCN(C(=O)c3cc4c(ccc5[nH]ncc54)[nH]3)CC2)cc1` [Compound 4570002340, (3,6-Dihydro-pirrolo[3,2-e]indazol-7-yl)-[4-(4-methylbenzyl)piperidin-1-yl]methanone], for which the IC50 at NMDA receptors (setting [1]) was 127 nM.
As for `O=C(CCN1CCC(Cc2ccc(F)cc2)CC1)c1ccc2[nH]c(=O)oc2c1` [EMD 95885, reference compound], at NMDA receptors (setting [1]), the IC50 was 35 nM.
`C[C@@H](CN1CCC(Cc2ccccc2)CC1)[C@@H](O)c1ccc(O)cc1` [Ro 25.6981, R-(R*,S*)-1-(4-hydroxyphenyl)-2-methyl-3-[4-(phenylmethyl)piperidin-1-yl]-1-propanol, reference compound]: the IC50 on NMDA receptors worked out at 159 nM.
